Data set [1] in a line: Tissue distribution of BA. The format is in vivo.
Data set [2] relates to human OVCAR-3 (NIH-OVCAR-3) ovarian adenocarcinoma. As to the kind of experiment: OVCAR-3 ovarian carcinoma xenograft efficacy study. The format is in vivo, SCID mice. The method, then:
The human OVCAR-3 (NIH-OVCAR-3) ovarian adenocarcinoma utilized in the study is maintained in athymic nude mice by serial engraftment. The human SW620 colon adenocarcinoma utilized in the study is maintained in nude mice by serial engraftment.
Tumor weight may be estimated with the assumption that 1 mg is equivalent to 1 mm^3 of tumor volume. Tumor size, in mm^3, was calculated from: […]
Oral group receives BA p.o. (orally) twice daily from D1 p.m. until D68 a.m. (b.i.d. to end, i.e. twice daily dosing for the duration of the study). Alzet model osmotic pumps are implanted on Days 1, 15, and 29. The pumps are pre-warmed for 1 hour at 37° C., and then implanted subcutaneously (s.c.) in the left flanks of isofluoraneanesthetized mice. Each pump delivers a total dose of 25 mg/kg/week of BA over 14 days. BA is administrated intraperitoneally (i.p.) 15 mg/kg respectively twice weekly.
Each animal is euthanized when its neoplasm reached the predetermined endpoint size (1,000 mm^3).
where: T=median TTE for a treatment group, C=median TTE for control Group 1.

The next data set concerns advanced solid tumors. As to the kind of experiment: Phase 1b study of BA in combination with chemotherapy, clinical response via RECIST. The class given is in vivo, human. The method, then: (§1) The protocol has been amended to evaluate BA in combination with chemotherapy in specific tumor types.
BA plus cytotoxic chemotherapy (CTX)
(§2) BA Dosing: • Twice weekly; i.v. infusion • Standard 3+3 design for BA dose escalation • Dose levels studied: 2.0, 2.8, 4.0, 5.6, 8.0, and up to 11.2 mg/kg
Clinical response via RECIST every 2 cycles
Subjects— 18 years old with a refractory, advanced solid tumor, ECOG PS of <=2, and adequate hematological, renal, and hepatic function
No restriction on number of prior chemotherapeutic regimens

The conditions of data set [3]: in vivo. The method, then: as §1, §2
Safety, tolerability and MTD of each combination

Data set [4] deals with cervical adenocarcinoma Hela cells. As to the kind of experiment: BrdU cell proliferation assay in Hela cells. The class given is cell-based, human. The note with it: BA at various concentrations, FIG. 6. As for the experimental part: The effect of BA on the proliferation of cervical adenocarcinoma Hela cells is examined. Cell proliferation is assessed by BrdU assay as described herein.
Hela cell is an immortal cell line used in medical research. The cell line was derived from cervical cancer cells. HeLa S3 is a clonal derivative of the parent HeLa line. The HeLa S3 clone has been very useful in the clonal analysis of mammalian cell populations relating to chromosomal variation, cell nutrition, and plaque-forming ability. HeLa cells have been reported to contain human papilloma virus 18 (HPV-18) sequences. Cells are cultured according to the standard protocol (ATCC) in the art. Briefly: 1. Remove and discard culture medium. 2. […] 3. Add 2.0 to 3.0 ml of Trypsin-EDTA solution to flask and observe cells under an inverted microscope until cell layer is dispersed (usually within 5 to 15 minutes). Cells that are difficult to detach may be placed at 37° C. to facilitate dispersal. 4. Add 6.0 to 8.0 ml of complete growth medium and aspirate cells by gently pipetting. 5. Add appropriate aliquots of the cell suspension to new culture vessels. 6. Incubate cultures at 37° C.
BrdU assay is well known in the art. […] The immune complexes are detected by the subsequent substrate reaction via chemiluminescent detection (based on Cell Proliferation ELISA, BrdU Chemiluminescence Protocol from Roche). […]

Data set [5] can be described thus: Stability of solutions and drug product. The format is physicochemical.
Data set [6] can be described thus: Preclinical studies of BA with topotecan.

The values below come from US20090123419A1, “TREATMENT OF UTERINE CANCER AND OVARIAN CANCER WITH A PARP INHIBITOR ALONE OR IN COMBINATION WITH ANTI-TUMOR AGENTS” (BiPar Sciences, priority 2007, published 2009).

As for `NC(=O)c1ccc(I)c([N+](=O)[O-])c1` [BA, 4-iodo-3-nitrobenzamide], the blood-brain barrier crossing result in data set [1] (in vivo) was “known to cross the blood-brain barrier”. For the same compound, the tissue distribution result in data set [1] (including the brain and cerebrospinal fluid (CSF)) was “distributes rapidly and widely into tissues”. Besides, the tumor growth result in data set [2] (OVCAR-3 xenograft in SCID mice) is “significantly inhibits tumor growth”. Also, in data set [2] (different routes of administration, FIG. 3), the “survival compared with the untreated control” value is given as “improves survival”. Further, the “subjects with stable disease for 2 cycles of treatment or more” value in the data set on advanced solid tumors (BA plus cytotoxic chemotherapy) is reported as “Approximately 80%”. Moreover, in the data set on advanced solid tumors (after 4 cycles of BA in combination with topotecan, FIG. 4), the “tumor response of a patient with advanced ovarian cancer” value was “partial response”. Besides, the “subjects demonstrating some clinical benefit” value with advanced solid tumors (of 66 subjects, BA plus cytotoxic chemotherapy) was determined as 53 subjects. In addition, the “liver lesion (target lesion) size after treatment” value in the data set with advanced solid tumors (one ovarian cancer patient, 4 cycles BA with topotecan, from 4.6 cm) was 1.5 cm. For the same compound, in the data set on advanced solid tumors (one ovarian cancer patient, 4 cycles BA with topotecan, from >300), the “CA 27-29 biomarker after treatment” value was below 200. Further, the “potentiation of known toxicities or increased frequency of expected toxicities of cytotoxic regimens” value in data set [3] was “no evidence”. For the same compound, the “proliferation of cervical adenocarcinoma Hela cells” value in data set [4] is “inhibits proliferation”. In addition, the “stability of BA dosing solution, time to administration after preparation” value in data set [5] (ambient (room) temperature, diluted in 0.9% NS or D5W) is at most 8 h. Besides, the “permitted storage of BA drug product” value in data set [5] (at 25° C., 10 mg/mL in 25% hydroxypropylbetacyclodextrin/10 mM phosphate buffer, pH 7.4) was at most 24 h. In data set [6], the “effect on antitumor activity of topotecan” value is on record as “potentiates the antitumor activity of topotecan”.
